Assay results published in patent US11292807B2 (OCEANS LTD., priority 2015, dated 2022).
Read-outs that look alike come from different tables or passages of the source.

What was measured:
MDA-MB [1] = conditions: MDA-MB
MDA-MB [2] = experiment: cells; conditions: Homo sapiens, read-out: Average cell viability, MDA-MB
PC3 = experiment: CIMA assay, cell viability, PC3; conditions: for Fold change in viability AVG: PC3
[3] = system: U373 (glioblastoma-astrocytoma); experiment: CIMA assay, cell viability, U373; conditions: for Fold change in viability AVG: U373
[4] = system: SKOV3 (ovarian adenocarcinoma); experiment: CIMA assay, cell viability, SKOV3; conditions: for Fold change in viability AVG: SKOV
[5] = system: THP-1 (acute monocytic leukemia); experiment: CIMA assay, cell viability, THP-1; conditions: for Fold change in viability AVG: THP-1
[6] = CIMA assay, cell viability, CCD1079SK; conditions: human, Average cell viability, CCD
Method: (§1) Stock solutions of the extracts were prepared in dimethylsulfoxide (DMSO) at 10 mg/mL and stored in 200 μl aliquots at −20° C. until analysis. This preparation ensured that the DMSO delivered to cells in culture never exceeded 1%.
(§2) Prepared extracts were assessed following chronic exposure conditions in which cells were seeded at 2×10^3 cells/well (96 well-plate) and incubated with test compounds for 72 h. Each compound was evaluated over a range of concentrations (0, 10, 25, 50 or 100 μg/ml). Cell proliferation was initially assessed using a standard colorimetric indicator of metabolic activity (CIMA) assay. In this assay, tetrazole reduction was evaluated as a measure of metabolic function that evaluates mitochondrial activity to determine the extent of cell proliferation within a culture. This assay is based on the reduction of yellow tetrazolium salt to purple formazan by mitochondrial reductases enzyme in viable cells, resulting in a color changed that confers a change in absorbance.

[7] = system: CCD1079SK (fibroblast, noncancerous but proliferating); experiment: CIMA assay, cell viability, CCD1079SK; conditions: CCD
Method: as §1, §2

A549 (lung carcinoma) = experiment: CIMA assay (colorimetric indicator of metabolic activity), cell viability, A549; conditions: for Fold change in viability AVG: A549

CC/C=C\C/C=C\C/C=C\C/C=C\CCC(=O)OC(COC(=O)CCCCCCC/C=C\C/C=C\C/C=C\CC)COC1OC(CO)C(O)C(O)C1O (stereo not shown) [Compound 14, MGDG C18:3/C16:4]
MDA-MB AVG (MDA-MB [1]; sample at 1 ug/mL): 1.13
MDA-MB AVG (MDA-MB [1]; sample at 10 ug/mL): 1.11
MDA-MB AVG (MDA-MB [1]; sample at 50 ug/mL): 0.74
MDA-MB AVG (MDA-MB [1]; sample at 100 ug/mL): 0.20
Fold change in viability AVG (MDA-MB [1]; 1 ug/mL): 1.13
Fold change in viability AVG (MDA-MB [1]; 10 ug/mL): 1.11
Fold change in viability AVG (MDA-MB [1]; 50 ug/mL): 0.74
Fold change in viability AVG (MDA-MB [1]; 100 ug/mL): 0.20
viability at 1 µg/mL (MDA-MB [2]; 1 ug/mL): 104%
viability at 10 µg/mL (MDA-MB [2]; 10 ug/mL): 102%
viability at 50 µg/mL (MDA-MB [2]; 50 ug/mL): 68%
viability at 100 µg/mL (MDA-MB [2]; 100 ug/mL): 18%
viability at 1 µg/mL (PC3; Homo sapiens, PC-3, read-out: Average cell viability, PC3, 1 ug/mL): 103%
viability at 10 µg/mL (PC3; Homo sapiens, PC-3, read-out: Average cell viability, PC3, 10 ug/mL): 98%
viability at 50 µg/mL (PC3; Homo sapiens, PC-3, read-out: Average cell viability, PC3, 50 ug/mL): 66%
viability at 100 µg/mL (PC3; Homo sapiens, PC-3, read-out: Average cell viability, PC3, 100 ug/mL): 12%
PC3 AVG (PC3; PC3, sample at 1 ug/mL): 1.07
PC3 AVG (PC3; PC3, sample at 10 ug/mL): 1.01
PC3 AVG (PC3; PC3, sample at 50 ug/mL): 0.68
PC3 AVG (PC3; PC3, sample at 100 ug/mL): 0.13
Fold change in viability AVG (PC3; 1 ug/mL): 1.07
Fold change in viability AVG (PC3; 10 ug/mL): 1.01
Fold change in viability AVG (PC3; 50 ug/mL): 0.68
Fold change in viability AVG (PC3; 100 ug/mL): 0.13
viability at 1 µg/mL ([3]; Homo sapiens, U373 MG, read-out: Average cell viability, U373, 1 ug/mL): 109%
viability at 10 µg/mL ([3]; Homo sapiens, U373 MG, read-out: Average cell viability, U373, 10 ug/mL): 100%
viability at 50 µg/mL ([3]; Homo sapiens, U373 MG, read-out: Average cell viability, U373, 50 ug/mL): 41%
viability at 100 µg/mL ([3]; Homo sapiens, U373 MG, read-out: Average cell viability, U373, 100 ug/mL): 9%
U373 AVG ([3]; U373, sample at 1 ug/mL): 1.10
U373 AVG ([3]; U373, sample at 10 ug/mL): 1.02
U373 AVG ([3]; U373, sample at 50 ug/mL): 0.42
U373 AVG ([3]; U373, sample at 100 ug/mL): 0.09
Fold change in viability AVG ([3]; 1 ug/mL): 1.10
Fold change in viability AVG ([3]; 10 ug/mL): 1.02
Fold change in viability AVG ([3]; 50 ug/mL): 0.42
Fold change in viability AVG ([3]; 100 ug/mL): 0.09
viability at 1 µg/mL ([4]; Homo sapiens, SK-OV-3, read-out: Average cell viability, SKOV, 1 ug/mL): 109%
viability at 10 µg/mL ([4]; Homo sapiens, SK-OV-3, read-out: Average cell viability, SKOV, 10 ug/mL): 97%
viability at 50 µg/mL ([4]; Homo sapiens, SK-OV-3, read-out: Average cell viability, SKOV, 50 ug/mL): 92%
viability at 100 µg/mL ([4]; Homo sapiens, SK-OV-3, read-out: Average cell viability, SKOV, 100 ug/mL): 67%
Fold change in viability AVG ([4]; 1 ug/mL): 1.17
Fold change in viability AVG ([4]; 10 ug/mL): 1.05
Fold change in viability AVG ([4]; 50 ug/mL): 0.89
Fold change in viability AVG ([4]; 100 ug/mL): 0.72
viability at 1 µg/mL ([5]; Homo sapiens, THP-1, read-out: Average cell viability, THP-1, 1 ug/mL): 99%
viability at 10 µg/mL ([5]; Homo sapiens, THP-1, read-out: Average cell viability, THP-1, 10 ug/mL): 100%
viability at 50 µg/mL ([5]; Homo sapiens, THP-1, read-out: Average cell viability, THP-1, 50 ug/mL): 62%
viability at 100 µg/mL ([5]; Homo sapiens, THP-1, read-out: Average cell viability, THP-1, 100 ug/mL): 51%
THP-1 AVG ([5]; THP-1, sample at 1 ug/mL): 1.13
THP-1 AVG ([5]; THP-1, sample at 10 ug/mL): 1.14
THP-1 AVG ([5]; THP-1, sample at 50 ug/mL): 0.70
THP-1 AVG ([5]; THP-1, sample at 100 ug/mL): 0.58
Fold change in viability AVG ([5]; 1 ug/mL): 1.12
Fold change in viability AVG ([5]; 10 ug/mL): 1.14
Fold change in viability AVG ([5]; 50 ug/mL): 0.70
Fold change in viability AVG ([5]; 100 ug/mL): 0.58
viability at 72 h, 1 ug/mL ([6]; CCD1079SK fibroblast cells (noncancerous, proliferating), 1 ug/mL): 102%
viability at 72 h, 10 ug/mL ([6]; CCD1079SK fibroblast cells (noncancerous, proliferating), 10 ug/mL): 96%
viability at 72 h, 50 ug/mL ([6]; CCD1079SK fibroblasts (noncancerous, proliferating), 50 ug/mL): 49%
viability at 72 h, 100 ug/mL ([6]; CCD1079SK fibroblasts (noncancerous, proliferating), 100 ug/mL): 19%
Fold change in viability AVG ([7]; 1 ug/mL): 1.12
Fold change in viability AVG ([7]; 10 ug/mL): 1.05
Fold change in viability AVG ([7]; 50 ug/mL): 0.54
Fold change in viability AVG ([7]; 100 ug/mL): 0.21
A549 AVG (A549 (lung carcinoma); A549, sample at 1 ug/mL): 1.15
A549 AVG (A549 (lung carcinoma); A549, sample at 10 ug/mL): 1.18
A549 AVG (A549 (lung carcinoma); A549, sample at 50 ug/mL): 1.03
A549 AVG (A549 (lung carcinoma); A549, sample at 100 ug/mL): 0.86
Fold change in viability AVG (A549 (lung carcinoma); 1 ug/mL): 1.15
Fold change in viability AVG (A549 (lung carcinoma); 10 ug/mL): 1.18
Fold change in viability AVG (A549 (lung carcinoma); 50 ug/mL): 1.03
Fold change in viability AVG (A549 (lung carcinoma); 100 ug/mL): 0.86
viability at 1 µg/mL (A549 (lung carcinoma); Homo sapiens, A549, read-out: Average cell viability, A549, 1 ug/mL): 99%
viability at 10 µg/mL (A549 (lung carcinoma); Homo sapiens, A549, read-out: Average cell viability, A549, 10 ug/mL): 101%
viability at 50 µg/mL (A549 (lung carcinoma); Homo sapiens, A549, read-out: Average cell viability, A549, 50 ug/mL): 88%
viability at 100 µg/mL (A549 (lung carcinoma); Homo sapiens, A549, read-out: Average cell viability, A549, 100 ug/mL): 74%
